Measurements as given in ChEMBL document CHEMBL1155915, “Anticonvulsant activity of some xanthone derivatives” (Bioorg Med Chem, 2008).
Activity calls are given as the source filed them. No cut-off for these calls is given here.

How the values were obtained:
[1] = Displacement of [3H]nitrendipine from voltage-dependent calcium channel in rat brain cortex by scintillation counting; format: tissue-based
Mus musculus [2] = experiment: Anticonvulsant activity against scMet-induced seizures in ip dosed mouse; format: functional
Mus musculus [3] = species: Mus musculus; experiment: Protective index, ratio of TD50 for mouse by rotarod test to ED50 for mouse by scMET test; format: functional
Rattus norvegicus [4] = experiment: Anticonvulsant activity against maximal electroshock-induced seizures in rat at 30 mg/kg, po after 1 hr; format: functional, organism-based; design: dose 30 mg/kg
Rattus norvegicus [5] = experiment: Neurotoxicity in rat at 30 mg/kg, po after 4 hrs by rotarod test; format: toxicity, organism-based; design: dose 30 mg/kg, route oral; conditions: in vivo
Rattus norvegicus [6] = experiment: Neurotoxicity in rat at 30 mg/kg, po after 0.5 hrs by rotarod test; format: toxicity, organism-based; design: dose 30 mg/kg, route oral; conditions: in vivo
Mus musculus [7] = experiment: Anticonvulsant activity against scMet-induced seizures in mouse at 30 mg/kg, ip after 4 hrs; format: functional, organism-based; design: dose 30 mg/kg
Mus musculus [8] = experiment: Neurotoxicity in mouse at 30 mg/kg, ip after 4 hrs by rotarod test; format: toxicity, organism-based; design: dose 30 mg/kg, route intraperitoneal; conditions: in vivo
Mus musculus [9] = experiment: Anticonvulsant activity against maximal electroshock-induced seizures in mouse at 10 mg/kg, ip after 4 hrs; format: functional, organism-based; design: dose 10 mg/kg
Mus musculus [10] = experiment: Neurotoxicity in mouse at 100 mg/kg, ip after 4 hrs by rotarod test; format: toxicity, organism-based; design: dose 100 mg/kg, route intraperitoneal; conditions: in vivo
Mus musculus [11] = experiment: Neurotoxicity in mouse at 30 mg/kg, ip after 0.5 hrs by rotarod test; format: toxicity, organism-based; design: dose 30 mg/kg, route intraperitoneal; conditions: in vivo
Mus musculus [12] = experiment: Anticonvulsant activity against maximal electroshock-induced seizures in mouse at 10 mg/kg, ip after 0.5 hrs; format: functional, organism-based; design: dose 10 mg/kg
Mus musculus [13] = experiment: Anticonvulsant activity against scMet-induced seizures in mouse at 100 mg/kg, ip after 4 hrs; format: functional, organism-based; design: dose 100 mg/kg
Mus musculus [14] = experiment: Anticonvulsant activity against scMet-induced seizures in mouse at 30 mg/kg, ip after 0.5 hrs; format: functional, organism-based; design: dose 30 mg/kg
Rattus norvegicus [15] = experiment: Anticonvulsant activity against maximal electroshock-induced seizures in rat at 30 mg/kg, po after 2 hrs; format: functional, organism-based; design: dose 30 mg/kg
Mus musculus [16] = experiment: Anticonvulsant activity against scMet-induced seizures in mouse at 10 mg/kg, ip after 0.5 hrs; format: functional, organism-based; design: dose 10 mg/kg
Rattus norvegicus [17] = experiment: Anticonvulsant activity against maximal electroshock-induced seizures in rat at 30 mg/kg, po after 4 hrs; format: functional, organism-based; design: dose 30 mg/kg
Rattus norvegicus [18] = experiment: Neurotoxicity in rat at 30 mg/kg, po after 1 hr by rotarod test; format: toxicity, organism-based; design: dose 30 mg/kg, route oral; conditions: in vivo
Mus musculus [19] = experiment: Neurotoxicity in mouse at 10 mg/kg, ip after 4 hrs by rotarod test; format: toxicity, organism-based; design: dose 10 mg/kg, route intraperitoneal; conditions: in vivo
Mus musculus [20] = experiment: Anticonvulsant activity against maximal electroshock-induced seizures in mouse at 100 mg/kg, ip after 0.5 hrs; format: functional, organism-based; design: dose 100 mg/kg
Mus musculus [21] = experiment: Anticonvulsant activity against scMet-induced seizures in mouse at 10 mg/kg, ip after 4 hrs; format: functional, organism-based; design: dose 10 mg/kg
Mus musculus [22] = experiment: Anticonvulsant activity against scMet-induced seizures in mouse at 100 mg/kg, ip after 0.5 hrs; format: functional, organism-based; design: dose 100 mg/kg
Mus musculus [23] = experiment: Neurotoxicity in mouse at 10 mg/kg, ip after 0.5 hrs by rotarod test; format: toxicity, organism-based; design: dose 10 mg/kg, route intraperitoneal; conditions: in vivo
Mus musculus [24] = experiment: Neurotoxicity in mouse at 300 mg/kg, ip after 0.5 hrs by rotarod test; format: toxicity, organism-based; design: dose 300 mg/kg, route intraperitoneal; conditions: in vivo
Rattus norvegicus [25] = experiment: Neurotoxicity in rat at 30 mg/kg, po after 0.25 hrs by rotarod test; format: toxicity, organism-based; design: dose 30 mg/kg, route oral; conditions: in vivo
Mus musculus [26] = experiment: Anticonvulsant activity against maximal electroshock-induced seizures in mouse at 30 mg/kg, ip after 0.5 hrs; format: functional, organism-based; design: dose 30 mg/kg
Mus musculus [27] = experiment: Anticonvulsant activity against maximal electroshock-induced seizures in mouse at 30 mg/kg, ip after 4 hrs; format: functional, organism-based; design: dose 30 mg/kg
Rattus norvegicus [28] = experiment: Anticonvulsant activity against maximal electroshock-induced seizures in rat at 30 mg/kg, po after 0.5 hrs; format: functional, organism-based; design: dose 30 mg/kg
Mus musculus [29] = experiment: Neurotoxicity in mouse at 3 mg/kg, ip after 0.5 hrs by rotarod test; format: toxicity, organism-based; design: dose 3 mg/kg, route intraperitoneal; conditions: in vivo
Rattus norvegicus [30] = experiment: Neurotoxicity in rat at 30 mg/kg, po after 2 hrs by rotarod test; format: toxicity, organism-based; design: dose 30 mg/kg, route oral; conditions: in vivo
Mus musculus [31] = experiment: Anticonvulsant activity against maximal electroshock-induced seizures in mouse at 3 mg/kg, ip after 0.5 hrs; format: functional, organism-based; design: dose 3 mg/kg
[32] = Displacement of [3H]flunitrazepam from benzodiazepine receptor in rat brain cortex by scintillation counting; format: tissue-based
Mus musculus [33] = experiment: Neurotoxicity in mouse at 300 mg/kg, ip after 4 hrs by rotarod test; format: toxicity, organism-based; design: dose 300 mg/kg, route intraperitoneal; conditions: in vivo
Mus musculus [34] = species: Mus musculus; experiment: Protective index, ratio of TD50 for mouse by rotarod test to ED50 for mouse by MES test; format: functional
Mus musculus [35] = experiment: Anticonvulsant activity against scMet-induced seizures in mouse at 300 mg/kg, ip after 4 hrs; format: functional, organism-based; design: dose 300 mg/kg
Mus musculus [36] = experiment: Anticonvulsant activity against maximal electroshock-induced seizures in ip dosed mouse; format: functional
Mus musculus [37] = experiment: Neurotoxicity in mouse at 100 mg/kg, ip after 0.5 hrs by rotarod test; format: toxicity, organism-based; design: dose 100 mg/kg, route intraperitoneal; conditions: in vivo
Mus musculus [38] = experiment: Anticonvulsant activity against maximal electroshock-induced seizures in mouse at 300 mg/kg, ip after 4 hrs; format: functional, organism-based; design: dose 300 mg/kg
Mus musculus [39] = experiment: Anticonvulsant activity against maximal electroshock-induced seizures in mouse at 300 mg/kg, ip after 0.5 hrs; format: functional, organism-based; design: dose 300 mg/kg
Mus musculus [40] = experiment: Anticonvulsant activity against scMet-induced seizures in mouse at 300 mg/kg, ip after 0.5 hrs; format: functional, organism-based; design: dose 300 mg/kg
[41] = Neurotoxicity in ip dosed mouse by rotarod test; format: toxicity, organism-based; conditions: in vivo
Mus musculus [42] = experiment: Neurotoxicity in mouse at 100 mg/kg, ip after 1 hr by rotarod test; format: toxicity, organism-based; design: dose 100 mg/kg, route intraperitoneal; conditions: in vivo
Mus musculus [43] = experiment: Anticonvulsant activity against maximal electroshock-induced seizures in mouse at 100 mg/kg, ip after 4 hrs; format: functional, organism-based; design: dose 100 mg/kg
Rattus norvegicus [44] = experiment: Anticonvulsant activity against maximal electroshock-induced seizures in rat at 30 mg/kg, po after 0.25 hrs; format: functional, organism-based; design: dose 30 mg/kg
Mus musculus [45] = experiment: Neurotoxicity in mouse at 30 mg/kg, ip after 1 hr by rotarod test; format: toxicity, organism-based; design: dose 30 mg/kg, route intraperitoneal; conditions: in vivo
Mus musculus [46] = experiment: Neurotoxicity in mouse at 100 mg/kg, ip after 0.25 hrs by rotarod test; format: toxicity, organism-based; design: dose 100 mg/kg, route intraperitoneal; conditions: in vivo
Mus musculus [47] = experiment: Anticonvulsant activity against maximal electroshock-induced seizures in mouse at 100 mg/kg, ip after 1 hr; format: functional, organism-based; design: dose 100 mg/kg

Compound | Activity (Rattus norvegicus [4]) | Neurotoxicity (Rattus norvegicus [5]) | Neurotoxicity (Rattus norvegicus [6]) | Activity (Mus musculus [7]) | Neurotoxicity (Mus musculus [8]) | Neurotoxicity (Mus musculus [10]) | Activity (Mus musculus [13]) | Activity (Mus musculus [14]) | Neurotoxicity (Rattus norvegicus [18]) | Activity (Mus musculus [20]) | Activity (Mus musculus [22]) | Neurotoxicity (Rattus norvegicus [25]) | Activity (Mus musculus [26]) | Activity (Mus musculus [27]) | Neurotoxicity (Rattus norvegicus [30]) | Neurotoxicity (Mus musculus [33]) | Activity (Mus musculus [35]) | Activity (Mus musculus [38]) | Activity (Mus musculus [39]) | Activity (Mus musculus [40]) | further results
NC(=O)N1c2ccccc2C=Cc2ccccc21 [CARBAMAZEPINE] |  |  |  |  |  |  |  |  |  |  |  |  |  |  |  |  |  |  |  |  | EC50 [1]: 1.2 µM; ED50 (Mus musculus [2]): > 50 mg/kg; PI (Mus musculus [3]): <1
CCN(CCO)Cc1ccc2oc3cc(Cl)ccc3c(=O)c2c1 | inactive | Not Active | Not Active | inactive | Not Active | Neurotoxic | inactive | inactive | Not Active | Active | inactive | Not Active | inactive | inactive | Not Active |  |  |  |  |  | Activity (Mus musculus [9]): inactive; Neurotoxicity (Mus musculus [11]): Not Active; Activity (Mus musculus [12]): Active; Activity (Rattus norvegicus [15]): inactive; Activity (Mus musculus [16]): inactive; Activity (Rattus norvegicus [17]): inactive; Neurotoxicity (Mus musculus [19]): Not Active; Activity (Mus musculus [21]): inactive; Neurotoxicity (Mus musculus [23]): Not Active; Neurotoxicity (Mus musculus [24]): Neurotoxic; Activity (Rattus norvegicus [28]): inactive; Neurotoxicity (Mus musculus [29]): Not Active; Activity (Mus musculus [31]): inactive
CN1C(=O)CN=C(c2ccccc2)c2cc(Cl)ccc21 [DIAZEPAM] |  |  |  |  |  |  |  |  |  |  |  |  |  |  |  |  |  |  |  |  | EC50 [32]: 0.7 µM
C[C@@H](CO)NCc1ccc2oc3cc(Cl)ccc3c(=O)c2c1 | inactive | Not Active | Not Active | inactive | Not Active | Not Active | inactive | inactive | Not Active |  |  | Not Active | inactive | inactive | Not Active | Not Active | inactive | Active | Active | inactive | EC50 [1]: 7.6 µM; PI (Mus musculus [34]): <6.851; ED50 (Mus musculus [36]): 73 mg/kg; ED50 (Mus musculus [2]): > 350 mg/kg; Neurotoxicity (Mus musculus [37]): Not Active; Neurotoxicity (Mus musculus [11]): Not Active; Activity (Rattus norvegicus [15]): inactive; EC50 [32]: 30 µM; Activity (Rattus norvegicus [28]): inactive; TD50 [41]: < 500 mg/kg
Cl.O=c1c2ccc(Cl)cc2oc2ccc(CNCCCO)cc12 | inactive | Not Active | Not Active | inactive | Not Active | Not Active | inactive | inactive | Not Active | inactive | inactive | Not Active | inactive | inactive | Not Active | Neurotoxic | inactive | inactive | Active | inactive | Neurotoxicity (Mus musculus [42]): Not Active; Activity (Mus musculus [43]): inactive; Neurotoxicity (Mus musculus [11]): Not Active; Activity (Rattus norvegicus [15]): inactive; Activity (Rattus norvegicus [17]): inactive; Activity (Rattus norvegicus [44]): inactive; Neurotoxicity (Mus musculus [24]): Neurotoxic; Activity (Rattus norvegicus [28]): inactive; Neurotoxicity (Mus musculus [45]): Not Active
C[C@@H](CCl)NCc1ccc2oc3cc(Cl)ccc3c(=O)c2c1.Cl |  |  |  | inactive | Not Active | Not Active | inactive | inactive |  | inactive | inactive |  | inactive | inactive |  | Not Active | inactive | Active | Active | inactive | Neurotoxicity (Mus musculus [46]): Not Active; Activity (Mus musculus [47]): inactive
CCC(O)CNCc1ccc2oc3cc(Cl)ccc3c(=O)c2c1 (racemic) |  | Not Active | Not Active | inactive | Not Active |  | inactive | inactive | Not Active | Active | inactive | Not Active | Active | inactive | Not Active | Neurotoxic | inactive | Active | Active | inactive | Activity (Mus musculus [43]): Active; Activity (Mus musculus [12]): inactive; Neurotoxicity (Mus musculus [23]): Not Active; Neurotoxicity (Mus musculus [24]): Neurotoxic; Neurotoxicity (Mus musculus [29]): Not Active; Activity (Mus musculus [31]): inactive
